Experimental findings from patent publication US8912216B2, “Hetaryl-[1,8]naphthyridine derivatives” (Merck Patent GmbH, priority 2010, dated 2014) are described below.

pIC50: −log10 of the molar value. Where a name gives a salt, the structure may show the parent alone. Read-outs that look alike come from different tables or passages of the source. Bounds are passed on as bounds.

One assay has as its target T1, GST-ALK5 (Homo sapiens, UniProt P36897).
T1 sequence (P36897 34-503): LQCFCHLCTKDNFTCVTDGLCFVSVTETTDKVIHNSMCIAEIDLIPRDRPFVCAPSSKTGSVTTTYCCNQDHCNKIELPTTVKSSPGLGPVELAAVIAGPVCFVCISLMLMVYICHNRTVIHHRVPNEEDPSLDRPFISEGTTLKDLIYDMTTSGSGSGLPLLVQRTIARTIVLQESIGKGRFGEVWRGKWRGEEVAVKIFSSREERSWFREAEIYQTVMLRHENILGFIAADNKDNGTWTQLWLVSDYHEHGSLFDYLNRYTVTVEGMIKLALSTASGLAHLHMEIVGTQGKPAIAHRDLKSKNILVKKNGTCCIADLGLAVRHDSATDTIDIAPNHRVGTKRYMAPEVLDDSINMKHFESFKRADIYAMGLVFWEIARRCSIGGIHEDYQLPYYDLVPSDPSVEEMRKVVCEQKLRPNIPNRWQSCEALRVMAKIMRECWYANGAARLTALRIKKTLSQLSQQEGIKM
Briefly: In-vitro (enzyme) kinase assay, 384-well flashplate (Example 36). Type of assay: biochemical. The note with it: GST-ALK5, GST-SMAD2 substrate, 3 mM ATP, 30° C., 45 min; read-out: TβR activity (Example 36). How it is done: In-vitro (Enzyme) Assay for Determination of the Efficacy of Inhibitors of the Inhibition of TGF-beta-Mediated Effects
The kinase assay was carried out as 384-well flashplate assay. 31.2 nM of GST-ALK5, 439 nM of GST-SMAD2 and 3 mM of ATP (with 0.3 μCi of ^33P-ATP/well) were incubated in a total volume of 35 μl (20 mM of HEPES, 10 mM of MgCl2, 5 mM of MnCl2, 1 mM of DTT, 0.1 of BSA, pH 7.4) without or with test substance (5-10 concentrations) at 30° C. for 45 min. The reaction was stopped using 25 μl of 200 mM EDTA solution, filtered with suction at room temperature after 30 min, and the wells were washed with 3 times 100 μl of 0.9% NaCl solution. Radioactivity was measured in the TopCount. The IC50 values were calculated using RS1.

For assay [1], the system named is TGF-beta-induced phosphorylation of Smad2 and Smad3 in Mv1-Lu cells. Briefly: Inhibition of Smad2/3 phosphorylation in Mv1Lu cells (Example 35A). Type of assay: cell-based, mink Mustela vison. The conditions noted are these: Neogale vison, read-out: TβR activity (Example 35A). On the procedure:
Inhibition of Smad2/3 Phosphorylation in Mv1Lu Cells by TGF-bta Receptor I Kinase Inhibitors
This assay was used to determine the inhibitory potency of compounds on TGF-beta-induced phosphorylation of Smad2 (Ser465/467) and Smad3 (Ser423/425). Mv1-Lu cells (lung epithelial cell line from mink Mustela vison; ATCC number: CCL-64) were seeded in DMEM (Invitrogen) supplemented with 10% fetal bovine serum (Pan Biotech) at a defined cell density in 24-well or 96-well plates (24-well plate: 1.5×10^5 cells per well; 96-well plate: 4×10^4 cells per well). Cell cultures were incubated in DMEM at 37° C. and 10% CO2. On the next day, the medium was replaced and cells were serum-starved for 16-20 hours. The following day, serial dilutions of compounds were added to the wells, pre-incubated for 1.5 hrs before recombinant TGF-beta 1 ligand (final concentration 5 ng/ml; R&D systems) was added. After one hour of ligand stimulation, lysates were prepared and analyzed using an enzyme-linked immunosorbent assay kit (PathScan Phospho-Smad2 Kit, Cell Signaling Technologies). The ELISA detects phosphorylated Smad2 as well as phosphorylated Smad3 with the phospho-specific antibody. TGF-beta stimulated cells and unstimulated cells served as positive and negative controls (100% and background control). The concentration of the vehicle DMSO was kept constant at 0.2% (v/v) in all wells. Dose-response relationships were fitted using curve fitting algorithms of the RS1 statistics software package (Brooks Automation Inc. RS/1—Statistical Tools Handbook. Release 6.2) to determine the concentration at which half-maximal inhibition (IC50) of Smad2/3 phosphorylation was achieved.

[2] abbreviates: Mv1-Lu cells, TGF-beta 1 5 ng/ml, phospho-Smad2/3 ELISA.

On to `Fc1ccc(C(F)(F)F)cc1-c1cc(-c2cncc(-c3cnn(C4CCNCC4)c3)c2)c2cccnc2n1` [compound 18, 2-(2-Fluoro-5-trifluoromethyl-phenyl)-4-[5-(1-piperidin-4-yl-1H-pyrazol-4-yl)-pyridin-3-yl]-[1,8]naphthyridine dihydrochloride], for which the pIC50 (on GST-ALK5; in assay [1]) was greater than 7.00 throughout.
As for `NCCOc1cccc(-c2cncc(-c3cc(-c4cc(Cl)ccc4F)nc4ncccc34)c2)c1` [compound 143, 2-(3-{5-[2-(5-Chloro-2-fluoro-phenyl)-[1,8]naphthyridin-4-yl]-pyridin-3-yl}-phenoxy)-ethylamine], the pIC50 at GST-ALK5 was greater than 7.00; in assay [1] (setting [2]), 6.00 to 7.00.
The like results for `CN1CCC(n2cc(-c3cncc(-c4cc(-c5cc(Cl)ccc5F)nc5ncccc45)c3)cn2)C1` (centres unmarked) [compound 58, 2-(5-Chloro-2-fluoro-phenyl)-4-{5-[1-(1-methyl-pyrrolidin-3-yl)-1H-pyrazol-4-yl]-pyridin-3-yl}-[1,8]naphthyridine] were, in that order, greater than 7.00 and greater than 7.00.
On to `Fc1ccc(Cl)cc1-c1cc(-c2cncc3ccccc23)c2cccnc2n1` [compound 2, 2-(5-Chloro-2-fluoro-phenyl)-4-isoquinolin-4-yl-[1,8]naphthyridine], for which the values for the pIC50 (on GST-ALK5; in assay [1] (setting [2])) were 6.00 to 7.00 and 5.00 to 6.00, respectively.
Regarding `Fc1ccc(Cl)cc1-c1cc(-c2cncc(-c3cccc(-n4ccnc4)n3)c2)c2cccnc2n1` [compound 110, 2-(5-Chloro-2-fluoro-phenyl)-4-(6-imidazol-1-yl-[2,3′]bipyridinyl-5′-yl)-[1,8]naphthyridine], the pIC50 (at GST-ALK5; in assay [1] (setting [2])) was less than 5.00 in each case.
As for `CN1CC[C@H](n2cc(-c3cncc(-c4cc(-c5ccccc5F)nc5ncccc45)c3)cn2)C1` [compound 69, 2-(2-Fluoro-phenyl)-4-{5-[1-((S)-1-methyl-pyrrolidin-3-yl)-1H-pyrazol-4-yl]-pyridin-3-yl}-[1,8]naphthyridine], the pIC50 (at GST-ALK5; in assay [1] (setting [2])) was greater than 7.00 in each case.
Consider `O=C1COc2ccc(-c3cncc(-c4cc(-c5cc(Cl)ccc5F)nc5ncccc45)c3)cc2N1` [compound 131, 6-{5-[2-(5-Chloro-2-fluoro-phenyl)-[1,8]naphthyridin-4-yl]-pyridin-3-yl}-4H-benzo[1,4]oxazin-3-one], for which the pIC50 on GST-ALK5 was greater than 7.00; in assay [1] (setting [2]) it was 6.00 to 7.00.
Take `CN(C)CCc1ccc(-c2cncc(-c3cc(-c4cc(F)ccc4F)nc4ncccc34)c2)cc1` [compound 177, [2-(4-{5-[2-(2,5-Difluoro-phenyl)-[1,8]naphthyridin-4-yl]-pyridin-3-yl}-phenyl)-ethyl]-dimethyl-amine]: the pIC50 (on GST-ALK5; in assay [1] (setting [2])) was greater than 7.00 throughout.
In the case of `Cc1cccc(-c2cc(-c3cncc(-c4cnn(C5CCN(C)CC5)c4)c3)c3cccnc3n2)n1` [compound 49, 4-{5-[1-(1-Methyl-piperidin-4-yl)-1H-pyrazol-4-yl]-pyridin-3-yl}-2-(6-methyl-pyridin-2-yl)-[1,8]naphthyridine], the pIC50 (at GST-ALK5; in assay [1] (setting [2])) was greater than 7.00 in each case.
With `CN1CCN(c2ccc(-c3cncc(-c4cc(-c5cc(Cl)ccc5F)nc5ncccc45)c3)cn2)CC1` [compound 93, 2-(5-Chloro-2-fluoro-phenyl)-4-[6′-(4-methyl-piperazin-1-yl)-[3,3′]bipyridinyl-5-yl]-[1,8]naphthyridine], the pIC50 (on GST-ALK5; in assay [1] (setting [2])) was greater than 7.00 throughout.
`Fc1ccc(C(F)(F)F)cc1-c1cc(-c2cncc(-c3cnn(CCN4CCOCC4)c3)c2)c2cccnc2n1` [compound 34, 2-(2-Fluoro-5-trifluoromethyl-phenyl)-4-{5-[1-(2-morpholin-4-yl-ethyl)-1H-pyrazol-4-yl]-pyridin-3-yl}-[1,8]naphthyridine]: the results for the pIC50 (at GST-ALK5; in assay [1] (setting [2])) were greater than 7.00 and 6.00 to 7.00, respectively.
Consider `Fc1ccc(Cl)cc1-c1cc(-c2cncc(-c3cccc(OCCN4CCCC4)c3)c2)c2cccnc2n1` [compound 158, 2-(5-Chloro-2-fluoro-phenyl)-4-{5-[3-(2-pyrrolidin-1-yl-ethoxy)-phenyl]-pyridin-3-yl}-[1,8]naphthyridine], for which the pIC50 (on GST-ALK5; in assay [1] (setting [2])) was greater than 7.00 throughout.
`OC/C=C/Cn1cc(-c2cncc(-c3cc(-c4ccccc4F)nc4ncccc34)c2)cn1` [compound 84]: the pIC50 on GST-ALK5 is greater than 7.00; in assay [1] (setting [2]), 6.00 to 7.00.
Take `OCCN(CCO)c1cccc(-c2cncc(-c3cc(-c4cc(Cl)ccc4F)nc4ncccc34)c2)n1` [compound 170, 2-[{5′-[2-(5-Chloro-2-fluoro-phenyl)-[1,8]naphthyridin-4-yl]-[2,3′]bipyridinyl-6-yl}-(2-hydroxy-ethyl)amino]-ethanol]: the pIC50 is greater than 7.00 at GST-ALK5 and 6.00 to 7.00 in assay [1] (setting [2]).
`CN1CCN(c2ccc(-c3cnnc(-c4cc(-c5cc(Cl)ccc5F)nc5ncccc45)c3)cc2)CC1` [compound 130, 2-(5-Chloro-2-fluoro-phenyl)-4-{5-[4-(4-methyl-piperazin-1-yl)-phenyl]-pyridazin-3-yl}-[1,8]naphthyridine]: the pIC50 (on GST-ALK5; in assay [1] (setting [2])) was 5.00 to 6.00 each time.
For `Fc1ccc(Cl)cc1-c1cc(-c2cncc(-c3ccc(N4CCNCC4)nc3)c2)c2cccnc2n1` [compound 95, 2-(5-Chloro-2-fluoro-phenyl)-4-(6′-piperazin-1-yl-[3,3′]bipyridinyl-5-yl)-[1,8]naphthyridine], the pIC50 is greater than 7.00 on GST-ALK5 and 6.00 to 7.00 in assay [1] (setting [2]).
Turning to `Fc1ccccc1-c1cc(-c2cncc(-c3cnn(CCN4CCCC4)c3)c2)c2cccnc2n1` [compound 24, 2-(2-Fluoro-phenyl)-4-{5-[1-(2-pyrrolidin-1-yl-ethyl)-1H-pyrazol-4-yl]-pyridin-3-yl}-[1,8]naphthyridine], the pIC50 (at GST-ALK5; in assay [1] (setting [2])) was greater than 7.00 each time.
Take `CCOC(=O)c1cccc(-c2cncc(-c3cc(-c4cc(Cl)ccc4F)nc4ncccc34)c2)n1` [compound 124, 5′-[2-(5-Chloro-2-fluoro-phenyl)-[1,8]naphthyridin-4-yl]-[2,3′]bipyridinyl-6-carboxylic acid ethyl ester]: the pIC50 at GST-ALK5 is 5.00 to 6.00; in assay [1] (setting [2]), 6.00 to 7.00.
`Cc1cccc(-c2cc(-c3cncc4ccccc34)c3cccnc3n2)n1` [compound 3, 4-Isoquinolin-4-yl-2-(6-methyl-pyridin-2-yl)-[1,8]naphthyridine]: the pIC50 is 5.00 to 6.00 at GST-ALK5 and less than 5.00 in assay [1] (setting [2]).
In the case of `Fc1ccc(F)c(-c2cc(-c3cncc(-c4ccc(OC5CCNCC5)cc4)c3)c3cccnc3n2)c1` [compound 120, 2-(2,5-DifIuoro-phenyl)-4-{5-[4-(piperidin-4-yloxy)-phenyl]-pyridin-3-yl}-[1,8]naphthyridine], the pIC50 (at GST-ALK5; in assay [1] (setting [2])) was greater than 7.00 throughout.
In the case of `Nc1ncc(-c2cc(-c3cc(F)ccc3F)nc3ncccc23)c2ccncc12` [compound 73, 4-[2-(2,5-Difluoro-phenyl)-[1,8]naphthyridin-4-yl]-[2,7]naphthyridin-1-ylamine], the pIC50 (at GST-ALK5; in assay [1] (setting [2])) was greater than 7.00 each time.
Regarding `CN1CCN(c2ccc(-c3cncc(-c4cc(-c5cc(F)ccc5F)nc5ncccc45)c3)cn2)CC1` [compound 121, 2-(2,5-Difluoro-phenyl)-4-[6′-(4-methyl-piperazin-1-yl)-[3,3′]bipyridinyl-5-yl]-[1,8]naphthyridine], the pIC50 at GST-ALK5 was greater than 7.00; in assay [1] (setting [2]), 6.00 to 7.00.
